Assay results: ChEMBL document CHEMBL1147043, “Comparative metabolism of radiolabeled muraglitazar in animals and humans by quantitative and qualitative metabolite profiling” (Drug Metab Dispos, 2007)

Tests used:
[1] = Biodistribution in orally dosed cynomolgus monkey feces assessed as 9-hydroxy-O-demethyl muraglitazar level by LC/MS analysis; format: ADME, organism-based, Macaca fascicularis; settings: in vivo, po
[2] = Metabolic stability in CD1 mouse hepatocytes assessed as muraglitazar 12-carboxylic acid level by LC/MS analysis relative to control; format: ADME, cell-based, Hepatocyte
[3] = Metabolic stability in cynomolgus monkey hepatocytes assessed as O-Dealkyl muraglitazar level by LC/MS analysis relative to control; format: ADME, cell-based, Macaca fascicularis, Hepatocyte
[4] = Drug concentration in human bile at 20 mg/kg, po after 48 hrs; format: ADME, organism-based; design: dose 20 mg/kg, route oral; settings: in vivo
Hepatocyte [5] = experiment: Metabolic stability in Sprague-Dawley rat hepatocytes assessed as 17-hydroxy muraglitazar level by LC/MS analysis relative to control; format: ADME, cell-based
[6] = Drug concentration in cynomolgus monkey feces assessed as recovery of radioactive dose at 2 mg/kg, po after 168 hrs; format: ADME, organism-based, Macaca fascicularis; design: dose 2 mg/kg, route oral; settings: in vivo
Plasma [7] = experiment: Biodistribution in orally dosed human plasma assessed as […] muraglitazar level after 4 hrs by LC/MS analysis; format: ADME, organism-based; settings: in vivo, po
Rattus norvegicus [8] = experiment: Biodistribution in orally dosed Sprague-Dawley rat urine assessed as 12-hydroxy-O-demethyl muraglitazar level by LC/MS analysis; format: ADME, organism-based; settings: in vivo, po
Plasma [9] = experiment: Biodistribution in orally dosed human plasma assessed as 12-hydroxy-O-demethyl muraglitazar level after 4 hrs by LC/MS analysis; format: ADME, organism-based; settings: in vivo, po
Hepatocyte [10] = experiment: Metabolic stability in human hepatocytes assessed as 17-hydroxy-O-demethyl muraglitazar level by LC/MS analysis relative to control; format: ADME, cell-based
[11] = Fecal excretion of compound in orally dosed cynomolgus monkey within 48 hrs; format: ADME, organism-based, Macaca fascicularis; settings: faeces, po, read-out: Activity
Plasma [12] = experiment: Biodistribution in orally dosed cynomolgus monkey plasma assessed as 12-hydroxy-O-demethyl muraglitazar level after 1 hr by LC/MS analysis; format: ADME, organism-based, Macaca fascicularis; settings: in vivo, po
Rattus norvegicus [13] = experiment: AUC (0 to T) in Sprague-Dawley rat at 10 mg/kg, po after 24 hrs; format: ADME, organism-based, Plasma; design: time < 24 hr, dose 10 mg/kg, route oral; settings: in vivo
[14] = Metabolic stability in CD1 mouse hepatocytes assessed as O-demethyl muraglitazar level by LC/MS analysis relative to control; format: ADME, cell-based, Hepatocyte
Plasma [15] = experiment: Biodistribution in orally dosed cynomolgus monkey plasma assessed as O-Dealkyl muraglitazar level after 4 hrs by LC/MS analysis; format: ADME, organism-based, Macaca fascicularis; settings: in vivo, po
Hepatocyte [16] = experiment: Metabolic stability in Sprague-Dawley rat hepatocytes assessed as hydroxyl muraglitazar glucuronide level by LC/MS analysis relative to control; format: ADME, cell-based
Plasma [17] = experiment: Biodistribution in orally dosed cynomolgus monkey plasma assessed as O-demethyl muraglitazar level after 1 hr by LC/MS analysis; format: ADME, organism-based, Macaca fascicularis; settings: in vivo, po
Plasma [18] = experiment: Biodistribution in orally dosed human plasma assessed as muraglitazar 12-carboxylic acid level after 4 hrs by LC/MS analysis; format: ADME, organism-based; settings: in vivo, po
Hepatocyte [19] = experiment: Metabolic stability in Sprague-Dawley rat hepatocytes assessed as 8-hydroxy-O-demethyl muraglitazar level by LC/MS analysis relative to control; format: ADME, cell-based
[20] = Metabolic stability in CD1 mouse hepatocytes assessed as 17-hydroxy-O-demethyl muraglitazar level by LC/MS analysis relative to control; format: ADME, cell-based, Hepatocyte
[21] = Drug concentration in human feces assessed as recovery of radioactive dose at 10 mg, po after 240 hrs; format: ADME, organism-based; settings: in vivo
Plasma [22] = experiment: Biodistribution in orally dosed cynomolgus monkey plasma assessed as 12,17-dihydroxy muraglitazar level after 1 hr by LC/MS analysis; format: ADME, organism-based, Macaca fascicularis; settings: in vivo, po
Hepatocyte [23] = experiment: Metabolic stability in human hepatocytes assessed as 8,12-dihydroxy muraglitazar level by LC/MS analysis relative to control; format: ADME, cell-based
Plasma [24] = experiment: Biodistribution in orally dosed Sprague-Dawley rat plasma assessed as muraglitazar 12-carboxylic acid level after 12 hrs by LC/MS analysis; format: ADME, organism-based; settings: in vivo, po
[25] = Fecal excretion of compound in orally dosed human within 96 hrs; format: ADME, organism-based; settings: faeces, po, read-out: Activity
[26] = Biodistribution in orally dosed human feces assessed as 8-hydroxy muraglitazar level by LC/MS analysis; format: ADME, organism-based; settings: in vivo, po
Rattus norvegicus [27] = experiment: Biodistribution in orally dosed Sprague-Dawley rat feces assessed as imide derivative of muraglitazar level by LC/MS analysis; format: ADME, organism-based; settings: in vivo, po
[28] = Biodistribution in orally dosed cynomolgus monkey urine assessed as 9-hydroxy-O-demethyl muraglitazar level by LC/MS analysis; format: ADME, organism-based, Macaca fascicularis; settings: in vivo, po
Plasma [29] = experiment: Biodistribution in orally dosed Beagle dog plasma assessed as 12-dihydroxy muraglitazar level after 12 hrs by LC/MS analysis; format: ADME, organism-based, Canis lupus familiaris; settings: in vivo, po
[30] = Biodistribution in orally dosed Beagle dog feces assessed as 12-hydroxy muraglitazar level by LC/MS analysis; format: ADME, organism-based, Canis lupus familiaris; settings: in vivo, po
[31] = Metabolic stability in CD1 mouse hepatocytes assessed as O-dealkyl-O-demethyl muraglitazar level by LC/MS analysis relative to control; format: ADME, cell-based, Hepatocyte
[32] = Drug concentration in Beagle dog urine assessed as recovery of radioactive dose at 1.9 mg/kg, po after 168 hrs; format: ADME, organism-based, Canis lupus familiaris; design: dose 1.9 mg/kg, route oral; settings: in vivo
Rattus norvegicus [33] = experiment: Biodistribution in orally dosed Sprague-Dawley rat urine assessed as O-demethyl muraglitazar level by LC/MS analysis; format: ADME, organism-based; settings: in vivo, po
[34] = Metabolic stability in cynomolgus monkey hepatocytes assessed as 8-hydroxy-O-demethyl muraglitazar level by LC/MS analysis relative to control; format: ADME, cell-based, Macaca fascicularis, Hepatocyte
[35] = Drug concentration in Sprague-Dawley rat feces assessed as recovery of radioactive dose at 11 mg/kg, po after 168 hrs; format: ADME, organism-based; design: dose 11 mg/kg, route oral; settings: in vivo
[36] = Biodistribution in orally dosed human feces assessed as 12-hydroxy muraglitazar level by LC/MS analysis; format: ADME, organism-based; settings: in vivo, po
[37] = Biodistribution in orally dosed cynomolgus monkey urine assessed as muraglitazar glucuronide level by LC/MS analysis; format: ADME, organism-based, Macaca fascicularis; settings: in vivo, po
Rattus norvegicus [38] = experiment: Biodistribution in orally dosed Sprague-Dawley rat feces assessed as 12-hydroxy-O-demethyl muraglitazar level by LC/MS analysis; format: ADME, organism-based; settings: in vivo, po
[39] = Biodistribution in orally dosed human feces assessed as O-dealkyl-O-demethyl muraglitazar level by LC/MS analysis; format: ADME, organism-based; settings: in vivo, po
[40] = Biodistribution in orally dosed cynomolgus monkey urine assessed as O-dealkyl-O-demethyl muraglitazar level by LC/MS analysis; format: ADME, organism-based, Macaca fascicularis; settings: in vivo, po
[41] = Biodistribution in orally dosed human urine assessed as O-dealkyl muraglitazar level by LC/MS analysis; format: ADME, organism-based; settings: in vivo, po
[42] = Biodistribution in orally dosed cynomolgus monkey feces assessed as O-dealkyl-O-demethyl muraglitazar level by LC/MS analysis; format: ADME, organism-based, Macaca fascicularis; settings: in vivo, po
Plasma [43] = experiment: Biodistribution in orally dosed Beagle dog plasma assessed as O-Dealkyl muraglitazar level after 1 hr by LC/MS analysis; format: ADME, organism-based, Canis lupus familiaris; settings: in vivo, po
[44] = Metabolic stability in cynomolgus monkey hepatocytes assessed as 17-hydroxy-O-demethyl muraglitazar level by LC/MS analysis relative to control; format: ADME, cell-based, Macaca fascicularis, Hepatocyte
[45] = Fecal excretion rate in orally dosed Beagle dog within 48 hrs; format: ADME, organism-based, Canis lupus familiaris; settings: faeces, po, read-out: Activity
Rattus norvegicus [46] = experiment: Biodistribution in orally dosed Sprague-Dawley rat urine assessed as O-demethyl muraglitazar glucuronide level by LC/MS analysis; format: ADME, organism-based; settings: in vivo, po
Plasma [47] = experiment: Biodistribution in orally dosed cynomolgus monkey plasma assessed as […] muraglitazar level after 1 hr by LC/MS analysis; format: ADME, organism-based, Macaca fascicularis; settings: in vivo, po
Plasma [48] = experiment: Biodistribution in orally dosed Sprague-Dawley rat plasma assessed as 12-hydroxy-O-demethyl muraglitazar level after 12 hrs by LC/MS analysis; format: ADME, organism-based; settings: in vivo, po
Plasma [49] = experiment: Biodistribution in orally dosed Beagle dog plasma assessed as 12-hydroxy-O-demethyl muraglitazar level after 12 hrs by LC/MS analysis; format: ADME, organism-based, Canis lupus familiaris; settings: in vivo, po
Hepatocyte [50] = experiment: Metabolic stability in human hepatocytes assessed as O-dealkyl-O-demethyl muraglitazar level by LC/MS analysis relative to control; format: ADME, cell-based
[51] = Metabolic stability in CD1 mouse hepatocytes assessed as O-Dealkyl muraglitazar level by LC/MS analysis relative to control; format: ADME, cell-based, Hepatocyte
[52] = Metabolic stability in CD1 mouse hepatocytes assessed as 12-hydroxy muraglitazar level by LC/MS analysis relative to control; format: ADME, cell-based, Hepatocyte

COc1ccc(OC(=O)N(CC(=O)O)Cc2ccc(OCCc3nc(-c4ccccc4)oc3C)cc2)cc1 [MURAGLITAZAR] gave a Drug uptake [1] of 0.32%, a Drug uptake [2] of 0.8% and a Drug uptake [3] of 7.6%. For the same molecule, the Drug uptake [4] was 0.068 mgequiv/ml, the Drug uptake (Hepatocyte [5]) was 2% and the Drug uptake [6] was 80.4%. The Drug uptake (Plasma [7]) was less than 0.05%, the Drug uptake (Rattus norvegicus [8]) was 0.01% and the Drug uptake (Plasma [9]) was 0.3%. It also gave a Drug uptake (Hepatocyte [10]) of 1.6%, a dose excreted at 48 h [11] of 30% and a Drug uptake (Plasma [12]) of 1.5%. It also gave an AUC (Rattus norvegicus [13]) of 105 ugequiv.h/ml, a Drug uptake [14] of 1.2% and a Drug uptake (Plasma [15]) of 0.3%. It also gave a Drug uptake (Hepatocyte [16]) of 0.5%, a Drug uptake (Plasma [17]) of 0.1% and a Drug uptake (Plasma [18]) of 0.2%. The Drug uptake (Hepatocyte [19]) was less than 0.2%, the Drug uptake [20] was 0.3% and the Drug uptake [21] was 61.6%. For the same molecule, the Drug uptake (Plasma [22]) was 1%, the Drug uptake (Hepatocyte [23]) was less than 0.2% and the Drug uptake (Plasma [24]) was less than 0.05%. For the same molecule, the dose excreted at 96 h [25] was 80%, the Drug uptake [26] was 0.56% and the Drug uptake (Rattus norvegicus [27]) was 2.63%. It also gave a Drug uptake [28] of 0.18%, a Drug uptake (Plasma [29]) of 9% and a Drug uptake [30] of 1.1%. The Drug uptake [31] was 5.7%, the Drug uptake [32] was 0.5% and the Drug uptake (Rattus norvegicus [33]) was 0.12%. It also gave a Drug uptake [34] of less than 0.2%, a Drug uptake [35] of 87.7% and a Drug uptake [36] of 8.2%. The Drug uptake [37] was 0.02%, the Drug uptake (Rattus norvegicus [38]) was 2.63% and the Drug uptake [39] was 0.4%. It also gave a Drug uptake [40] of 0.33%, a Drug uptake [41] of 0.06% and a Drug uptake [42] of 0.4%. It also gave a Drug uptake (Plasma [43]) of 2%, a Drug uptake [44] of 11% and a dose excreted at 48 h [45] of 95%. The Drug uptake (Rattus norvegicus [46]) was less than 0.01%, the Drug uptake (Plasma [47]) was 0.9% and the Drug uptake (Plasma [48]) was less than 0.05%. For the same molecule, the Drug uptake (Plasma [49]) was 15%, the Drug uptake (Hepatocyte [50]) was less than 0.2% and the Drug uptake [51] was 23.6%. For the same molecule, the Drug uptake [52] was 11%.
